For 102 compounds, LC retention time results are on record in the RepoRT retention time repository (doi:10.1016/j.chroma.2014.05.003).

The nature of the series: RP, Agilent ZORBAX Eclipse Plus C18, 50 × 4.6 mm, 1.8 µm, 0.5 mL/min, estimated dead time 1.1 min; A: water + 0.1% formic acid; B: acetonitrile + 0.1% formic acid; gradient (min/%B) 0/10 3/10 25/100 28/100. The conditions noted are these: stereoisomer not certain.

As for `COC(=O)c1ccc(C)cc1C1=NC(C)(C(C)C)C(=O)N1` (configuration not stated), the LC retention time was 9.12 min.
Under `Cc1ccnc(NS(=O)(=O)c2ccc(N)cc2)n1` stands 5.73 min; under `CC(C)N1C(=O)N(c2ccccc2)CSC1=NC(C)(C)C`, 18.3 min; under `CC(N)Cc1ccc2c(c1)OCO2` (configuration not stated), 4.74 min.
Under `CC(C)(C)c1ccc(CCOc2ncnc3ccccc23)cc1` stands 22 min; under `CNC(C)Cc1ccc2c(c1)OCO2` (configuration not stated), 5.39 min; under `COC(=O)Nc1nc2ccccc2[nH]1`, 3.27 min.
Under `COC(=O)NN=Cc1c[n+]([O-])c2ccccc2[n+]1[O-]` stands 6.32 min.
As to `COP(=S)(OC)Oc1ccc(Sc2ccc(OP(=S)(OC)OC)cc2)cc1`, the LC retention time was 21.2 min.
Under `CC1(C)SC2C(NC(=O)Cc3ccccc3)C(=O)N2C1C(=O)O` (configuration not stated) stands 10.8 min.
Under `CNCC(O)c1cccc(O)c1` (configuration not stated) stands 1.36 min; under `COc1cc(C2c3cc4c(cc3C(OC3OC5COC(C)OC5C(O)C3O)C3COC(=O)C23)OCO4)cc(OC)c1OP(=O)(O)O` (configuration not stated), 16.1 min.
Under `CC(Cc1ccc(C(C)(C)C)cc1)CN1CCCCC1` (configuration not stated) stands 12.5 min; under `CNC(=C[N+](=O)[O-])NCCSCc1ccc(CN(C)C)o1`, 2.03 min; under `CCN(CC)C(=O)c1cccc(C)c1`, 12.8 min.
In the case of `CN1C2CCC1CC(OC(=O)C(CO)c1ccccc1)C2` (configuration not stated), the LC retention time is 6.29 min.
Under `CCOP(=S)(Oc1ccc([N+](=O)[O-])cc1)c1ccccc1` (configuration not stated) stands 20 min; under `COc1ccc2c3c1OC1C(O)C=CC4C(C2)N(C)CCC341` (configuration not stated), 3.16 min.
Under `Cc1cccc(C)c1N` stands 5.94 min.
Under `CC(COc1ccc(Oc2ccccc2)cc1)Oc1ccccn1` (configuration not stated) stands 21.2 min; under `CCOC(=O)CC(SP(=O)(OC)OC)C(=O)OCC` (configuration not stated), 11.8 min.
On to `NC(N)=Nc1nc(CSCCC(N)=NS(N)(=O)=O)cs1`, for which the LC retention time is 1.81 min.
Under `CNC(=O)CSP(=S)(OC)OC` stands 9 min; under `COP(N)(=S)Oc1ccccc1C(=O)OC(C)C` (configuration not stated), 14.9 min.
Under `CCCCCCCCCCCCCCCC[N+](C)(C)Cc1ccccc1` stands 20.6 min; under `CNC(=O)CSP(=O)(OC)OC`, 2.22 min.
Under `CC(Cc1ccc(C(C)(C)C)cc1)CN1CC(C)OC(C)C1` (configuration not stated) stands 12.4 min; under `C#CC1(O)CCC2C3CCc4cc(O)ccc4C3CCC21C` (configuration not stated), 14.3 min; under `COc1ccc(Oc2ccc(NC(=O)N(C)C)cc2)cc1`, 13.3 min.
Take `CCCCCCCCCCCCCC[N+](C)(C)Cc1ccccc1`: the LC retention time is 18.4 min.
In the case of `CNC(C)C(O)c1ccccc1` (configuration not stated), the LC retention time is 2.78 min.
`O=NN1CCCCC1`: the LC retention time was 6.57 min.
Under `CN(C)C(=O)Nc1cccc(OC(=O)NC(C)(C)C)c1` stands 11.6 min; under `CC12CCC3c4ccc(O)cc4CCC3C1CC(O)C2O` (configuration not stated), 9.36 min.
Under `COc1cccc(C(=O)NN(C(=O)c2cc(C)cc(C)c2)C(C)(C)C)c1C` stands 16.6 min.
Under `CNC(=O)C=C(C)OP(=O)(OC)OC` stands 5.55 min.
For `CCC(C)c1ccccc1OC(=O)NC` (configuration not stated), the LC retention time was 15 min.
As for `COC(=O)C=C(C)OP(=O)(OC)OC`, the LC retention time is 9.1 min.
Under `CON=C(C(=O)NC1C(=O)N2C(C(=O)O)=C(COC(C)=O)CSC12)c1csc(N)n1` (configuration not stated) stands 6.29 min.
Under `CC1c2cccc(O)c2C(O)=C2C(=O)C3(O)C(O)=C(C(N)=O)C(=O)C(N(C)C)C3C(O)C21` (configuration not stated) stands 8.75 min; under `Nc1nc(N)nc(NC2CC2)n1`, 1.36 min.
On to `CNC(=O)Oc1cc(C)cc(C(C)C)c1`, for which the LC retention time is 15 min.
As to `O=c1oc2ccccc2c(O)c1C1CC(c2ccc(-c3ccccc3)cc2)Cc2ccccc21` (configuration not stated), the LC retention time is 21.7 min.
Take `CCn1cc(C(=O)O)c(=O)c2cc3c(cc21)OCO3`: the LC retention time is 9.71 min.
With `CCC1OC(=O)C(C)C(OC2CC(C)(OC)C(O)C(C)O2)C(C)C(OC2OC(C)CC(N(C)C)C2O)C(C)(O)CC(C)C(=O)C(C)C(O)C1(C)O` (configuration not stated), the LC retention time is 9.73 min.
Under `Cc1cc(C2CC2)nc(Nc2ccccc2)n1` stands 14.3 min; under `CCNc1nc(NC(C)C)nc(SC)n1`, 10.4 min.
`CCOC(=O)CCN(SN(C)C(=O)Oc1cccc2c1OC(C)(C)C2)C(C)C`: the LC retention time was 20.8 min.
On to `CN(C)C1CSSSC1`, for which the LC retention time is 2.02 min.
Regarding `COC(=O)NS(=O)(=O)c1ccc(N)cc1`, the LC retention time is 5.43 min.
With `CC12CCC(O)CC1CCC1C2CC(O)C2(C)C(C3=CC(=O)OC3)CCC12O` (configuration not stated), the LC retention time is 8.14 min.
`CS(=O)(=O)Nc1nc2cc(-c3ccc([N+](=O)[O-])cc3)c([N+](=O)[O-])cc2[nH]c1=O`: the LC retention time was 11.5 min.
As to `COCc1cnc(C2=NC(C)(C(C)C)C(=O)N2)c(C(=O)O)c1` (configuration not stated), the LC retention time was 8.04 min.
Turning to `CCCN(CCC)C(=O)SCc1ccccc1`, the LC retention time is 20.4 min.
Under `CCCOC(=O)NCCCN(C)C` stands 2.3 min.
Under `COc1ccc(-c2ccccc2)cc1NNC(=O)OC(C)C` stands 16.6 min; under `CN(C)c1nc(=O)n(C2CCCCC2)c(=O)n1C`, 10.1 min.
Under `CC(C)NCC(O)COc1cccc2[nH]ccc12` (configuration not stated) stands 5.55 min; under `CCC1OC(=O)CC(O)C(C)C(OC2OC(C)C(OC3CC(C)(O)C(O)C(C)O3)C(N(C)C)C2O)C(CC=O)CC(C)C(=O)C=CC(C)=CC1COC1OC(C)C(O)C(OC)C1OC` (configuration not stated), 10.1 min.
Regarding `Oc1ccccc1-c1ccccc1`, the LC retention time is 16.3 min.
Regarding `Nc1ccc(S(=O)(=O)Nc2ccccn2)cc1`, the LC retention time was 5.27 min.
For `CNc1nc(NC(C)C)nc(SC)n1`, the LC retention time was 8.8 min.
Turning to `CCCCN(CC)C(=O)SCCC`, the LC retention time was 19.6 min.
Under `CCCCN(CCCC)N=O` stands 15.9 min; under `COP(=S)(OC)Oc1ccc(S(=O)(=O)N(C)C)cc1`, 15.3 min; under `CC12CCC3c4ccc(O)cc4CCC3C1CCC2=O` (configuration not stated), 14.6 min.
For the compound `CNC(=O)Oc1cc(C)c(SC)c(C)c1`, the LC retention time was 15 min.
Under `O=c1[nH]c2c(c(=O)n1C1CCCCC1)CCC2` stands 11.3 min.
In the case of `CC12CCC3C(=CCc4cc(O)ccc43)C1CCC2=O` (configuration not stated), the LC retention time was 14.4 min.
For the compound `c1ccc2[nH]c(-c3cscn3)nc2c1`, the LC retention time was 4.54 min.
Under `Cc1nnc(-c2ccccc2)c(=O)n1N` stands 7.57 min.
Under `COP(=O)(OC)OC(C)=CC(=O)N(C)C` stands 6.41 min.
Under `CCOc1cc(OP(=S)(OC)OC)nc(CC)n1` stands 18.8 min.
In the case of `CCNc1nc(NC(C)C(C)C)nc(SC)n1` (configuration not stated), the LC retention time was 13.1 min.
Consider `Cn1c(=O)[nH]c(=O)c2[nH]cnc21`, for which the LC retention time is 1.47 min.
Under `CCOc1ccc(NC(=O)OC(C)C)cc1OCC` stands 15.3 min; under `Cc1ccc(C(C)(C)C)c(O)c1C(=O)O`, 14.2 min.
Under `COC(=O)C1C(OC(=O)c2ccccc2)CC2CCC1N2C` (configuration not stated) stands 7.3 min.
Under `CSc1nc(NC2CC2)nc(NC(C)(C)C)n1` stands 12.6 min; under `CCNC(C)Cc1ccccc1` (configuration not stated), 5.85 min; under `CON(C(=O)c1cc(C)oc1C)C1CCCCC1`, 17.7 min.
In the case of `CNC(C)Cc1ccccc1` (configuration not stated), the LC retention time was 4.88 min.
Under `Cc1c(C(C)C)c(=O)n(-c2ccccc2)n1C` stands 11.9 min; under `COC=C(C(=O)OC)c1ccccc1Oc1cc(Oc2ccccc2C#N)ncn1`, 15.8 min; under `CN(C)c1ccc(C(c2ccccc2)c2ccc(N(C)C)cc2)cc1`, 12.6 min.
Under `Cc1nc(N(C)C)nc(OC(=O)N(C)C)c1C` stands 6.86 min; under `CCn1cc(C(=O)O)c(=O)c2ccc(C)nc21`, 11.5 min; under `CC(C)(C)C(O)C(Oc1ccc(-c2ccccc2)cc1)n1cncn1` (configuration not stated), 16.6 min.
Under `O=C(NN=Cc1ccc([N+](=O)[O-])o1)c1ccc(O)cc1` stands 9.51 min; under `CC(=O)Nc1ccc(O)cc1`, 2.66 min; under `CCCC1CC(C(=O)NC(C(C)O)C2OC(SC)C(O)C(O)C2O)N(C)C1` (configuration not stated), 3.66 min.
With `CCN(CC)c1nc(C)cc(OP(=S)(OC)OC)n1`, the LC retention time was 19 min.
Under `CCNC(C)Cc1ccc2c(c1)OCO2` (configuration not stated) stands 6.16 min; under `CNC(=O)ON=CC(C)(C)S(C)(=O)=O`, 4.81 min.
In the case of `CCNc1nc(NCC)nc(SC)n1`, the LC retention time was 8.74 min.
Under `CCC(=O)C(CC(C)N(C)C)(c1ccccc1)c1ccccc1` (configuration not stated) stands 11.4 min.
Turning to `COC1C(OC(C)=O)CC(=O)OC(C)CC=CC=CC(O)C(C)CC(CC=O)C1OC1OC(C)C(OC2CC(C)(O)C(OC(=O)CC(C)C)C(C)O2)C(N(C)C)C1O` (configuration not stated), the LC retention time is 12 min.
Under `CCOP(=S)(OCC)Oc1ccc([N+](=O)[O-])cc1` stands 18.5 min; under `COCCOc1ccccc1S(=O)(=O)NC(=O)Nc1nc(OC)nc(OC)n1`, 11.9 min; under `CCOP(=O)(NC(C)C)Oc1ccc(SC)c(C)c1` (configuration not stated), 15.4 min.
On to `CN1CCCC1c1cccnc1` (configuration not stated), for which the LC retention time is 1.36 min.
Under `CN=C(NC#N)NCCSCc1nc[nH]c1C` stands 1.83 min.
